# From patent US11629175B2, “Method for preparing PHFS-like Tau aggregates” (ECOLE POLYTECHNIQUE FEDERALE DE LAUSANNE (EPFL), priority 2018, dated 2023)
# Columns and labels:
# tau biosensor cells = assay: Tau biosensor cell assay (FRET flow cytometry, confocal microscopy), seeding capacity; assay type: cell-based; settings: for Integrated FRET Density (IFD): FRET flow cytometry, 2 experimental repeats, 3 technical replicates
# Source text: Based on Furman and Diamond, 2017. FRET and Flow Cytometry Assays to Measure Proteopathic Seeding Activity in Biological Samples. Caroline Smet-Nocca (ed.), Tau Protein: Methods and Protocols, Methods in Molecular Biology, vol. 1523, DOI 10.1007/978-1-4939-6598-4_23, © Springer Science+Business Media New York 2017).
# Methods: FRET flow cytometry Biosensor cell assay (Furman and Diamond, 2017) was used to assess the seeding capacity of fibrillar R2 compared to R2 monomer, and fibrillar rPHF compared to 4R2N monomer
# Methods: cells were transduced with transduction buffer, R2 monomer, rPHFs or R2 fibrils following protocol by Furman and Diamond (2017).
# monomeric Tau 4R2N [1] = target: T1, monomeric Tau 4R2N (Homo sapiens, UniProt P10636); assay: R2-seeded Tau aggregation with commercially available inhibitors, ThS fluorescence and EM; assay type: biochemical; settings: Tau 4R2N 5 μM + R2 seeds 5 μM; inhibitor 1, 10, 100 μM; end timepoint ThS
# T1 construct: made in house; host or cells: E. coli (pET-28a(+))
# Experimental: The aggregation kinetic is followed using ThS fluorescence. a. The list and structure of the 5 inhibitors used in this proof of concept assay. b. As an example, the full kinetic of Tau incubated in presence of R2 seed with LMTX at 1 μM (orange), 10 μM (grey) or 100 μM (yellow) or in absence of inhibitor (blue). c. End timepoint ThS value of Tau incubated in presence of R2 with the five selected inhibitors at 1 μM (orange), 10 μM (grey) or 100 μM (yellow) or in absence of inhibitor (blue). The inhibition is dose-dependent, the inhibitors show various inhibition potencies (e.g. low for BSc3094, high for LMTX). […] Corresponding EM micrographs confirm the absence of significant fibrilization in the presence of most inhibitors. The presence of oligomeric species corroborate the hypothesis that Tau is locked in OFF-pathway conformations. The scale bars are 500 [nm].
# To do so, R2 seeds were incubated with monomeric Tau protein in presence or absence of a set commercially available know Tau aggregation inhibitors (ATPZ, LMTX, Pyrochatecol violet, BSc3094 and myricetin, FIG. 18 a) at three different conventions (1 μM, 10 μM and 100 μM). The aggregation kinetic was followed using ThS fluorescence. As an example, the full kinetic of Tau incubated in presence of R2 seed, with LMTX at the three different concentration is presented in FIG. 18 b. […]
# monomeric Tau 4R2N [2] = target: T1, monomeric Tau 4R2N; assay: Seeding of monomeric Tau with R2 or R2-derived peptide seeds, EM; assay type: biochemical; settings: 37° C.; for seeding of monomeric Tau / formation of rPHFs (EM): 10 μM sonicated peptide fibrils + 10 μM monomeric Tau
# Experimental: The seeding of Tau 4R2N (SEQ ID No: 5) by R2 was performed in presence of 10 μM of sonicated peptide fibrils, added to 10 μM of the monomeric soluble Tau, at 37° C. under stagnant conditions. It was observed that R2 is capable of seeding the aggregation of full length Tau (FIG. 3).
# Having determined which of the R2-derived peptides are capable of aggregation and characterized their aggregation kinetics and fibril morphology, it was next investigated whether some of the R2-derived peptides could induce the seeding of Tau and K18, and whether it would lead to the formation of rPHFs fibrils. In order to reach this goal, fibrils of the peptides that were able to aggregate (R2 dC5, dC9, dC10, dC15 K6N and dPHF6*) were sonicated and added to monomeric Tau or K18 at molar ratios of 10 μM: 10 μM (i.e. under the same experimental conditions as those leading to R2-seeding of Tau and K18).
# Unless stated otherwise, 100 μM R2 or R2-derived peptide were dissolved in 10 mM phosphate, 50 mM NaF, 0.5 mM DTT and pH-adjusted to 7.4. The solution was then vortexed and the supernatant was incubated in presence of heparin sodium salt at molar ratio 1:4 (heparin:peptide) (Applichem GmbH) at 37° C., either with or without constant orbital agitation (1000 rpm, Peqlab, Thriller).
# The obtained seeds were added at a final concentration of 10 μM to 10 μM of monomeric Tau or K18 in 10 mM phosphate, 50 mM NaF, 0.5 mM DTT and incubated 37° C.
# [3] = tested on: hippocampal rat primary neurons; assay: Immunocytochemistry (ThS) in transfected rat primary hippocampal neurons; assay type: cell-based; settings: 1 μM, 3 days
# Experimental: Next, the findings of the present invention were validated using a cellular model, the hippocampal rat primary neurons. Primary neurons were transfected with full length Tau and K18 ΔK280, and cells were treated with R2, R2-seeded Tau or R2-seeded K18 at a concentration of 1 μM, […]. After 3 days, the coverslips were processed for ICC. […] Although the intracellular ThS signal is relatively high, it is difficult to distinguish between uptake of exogenous material and seeding of endogenous and/or overexpressed Tau/K18 ΔK280, especially since the concentration used here is relatively high (1 μM).
# Hippocampi from PO WT rat (OFA SD, Charles River) were dissociated and triturated in papain-containing medium. After centrifugation at 400 g for 2 min, neurons were plated in MEM supplemented with 10% fetal calf serum (FCS) on Cultrex™ poly-L-lysine (Trevigen)-coated coverslips at 1.5×10^5 cells/ml (6 well-plates, 3 ml per well). After 4 h, medium was replaced with Neurobasal/B27 medium. Viral infections were performed two weeks, and transfection one week after plating.
# One week old hippocampal rat primary neurons seeded on coverslips coated with Cultrex poly-L-lysine were transfected with Tau or K18 ΔK280 ([…]) using lipofectamine 2000 reagent (Invitrogen). 24 h after transfection, cells were treated with 1 μM monomeric R2, R2 seeds, R2-seeded Tau, R2-seeded K18 and further incubated for 1 or 3 days. Cells were then fixed in 100% methanol at −20° C. for 10 min and rinsed three times in PBS. After blocking with 3% BSA in PBST for 30 min at RT, cells were incubated with ThS (Sigma) at 0.1 mg/ml in PBS for 10 min and rinsed 5 times with 80% Ethanol and once with PBS. Coverslips were then incubated with primary antibodies for 2 h at RT (see Table M.1). The cells were rinsed five times with PBST and subsequently incubated with the secondary antibodies at a dilution of 1/800 in PBST and DAPI at 2 μg/ml (Life technologies). The cells were washed five times in PBST, once in PBS and rinsed in MilliQ water before mounting in PVA medium with DABCO (Sigma). The cells were then examined with confocal laser-scanning microscope (LSM 700, Zeiss) and analyzed using Zen software.
# [4] = neurons transfected with K18 ΔK280
# [5] = neurons transfected with WT Tau 4R2N
# T1 sequence (P10636 1-441 isoform P10636-8): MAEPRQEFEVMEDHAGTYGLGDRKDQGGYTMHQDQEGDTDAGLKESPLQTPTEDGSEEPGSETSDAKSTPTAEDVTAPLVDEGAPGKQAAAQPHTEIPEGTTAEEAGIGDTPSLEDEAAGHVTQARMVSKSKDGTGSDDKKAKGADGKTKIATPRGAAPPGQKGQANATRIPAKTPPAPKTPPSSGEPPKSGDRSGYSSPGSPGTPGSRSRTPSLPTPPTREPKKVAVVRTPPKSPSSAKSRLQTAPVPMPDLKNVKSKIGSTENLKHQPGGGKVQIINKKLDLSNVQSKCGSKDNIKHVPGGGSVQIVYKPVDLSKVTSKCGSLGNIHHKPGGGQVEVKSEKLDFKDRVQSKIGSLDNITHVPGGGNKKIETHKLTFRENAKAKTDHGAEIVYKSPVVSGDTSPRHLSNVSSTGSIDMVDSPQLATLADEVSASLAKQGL
molecule,measurement,setting,value
"4R2N monomer: longest adult human Tau isoform, 441 amino acid, SEQ ID No 5, monomeric",Integrated FRET Density (IFD),tau biosensor cells,0
O=C(NNc1nc(-c2ccc([N+](=O)[O-])cc2)cs1)c1ccc2nc[nH]c2c1 [BSc3094],inhibition potency,monomeric Tau 4R2N [1],low
CN(C)c1ccc2c(c1)Sc1cc(N(C)C)ccc1N2.CS(=O)(=O)O.CS(=O)(=O)O [LMTX],inhibition potency,monomeric Tau 4R2N [1],high
"R2 extended and mutated to the SGGG motif: R2 PGGG-extended with P301S mutation (SGGG), SEQ ID No 4 (VQIINKKLDLSNVQSKCGSKDNIKHVSGGG; listed as Homo sapiens)",seeding of monomeric Tau / formation of rPHFs (EM),monomeric Tau 4R2N [2],allowed the formation of rPHFs
R2-seeded K18: K18 (SEQ ID No 6) fibrils formed by seeding with R2 seeds,ThS signal in transfected neurons,[3]; [4],strong ThS signal
same,localisation of ThS signal,[3]; [4],intracellular
same,ThS signal in transfected neurons,[3]; [5],strong ThS signal
same,localisation of ThS signal,[3]; [5],intracellular
"R2: Tau repeat peptide R2, SEQ ID No 1",incubation time until PHFs-like fibrils observed by EM,"monomeric Tau 4R2N [2]; 10 μM R2 seeds + 10 μM Tau 4R2N, stagnant",less than 4 h
same,seeding of monomeric Tau / formation of rPHFs (EM),monomeric Tau 4R2N [2],allowed the formation of rPHFs
rPHF fibrils: recombinant PHFs: Tau fibrils formed by seeding monomeric Tau with R2 seeds,Integrated FRET Density (IFD),tau biosensor cells,increase in the IFD
same,aggregates in transduced biosensor cells (confocal microscopy),tau biosensor cells; transduction per Furman and Diamond,bright aggregated puncta
same,ThS signal in transfected neurons,[3]; [4],strong ThS signal
same,localisation of ThS signal,[3]; [4],intracellular
same,ThS signal in transfected neurons,[3]; [5],strong ThS signal
same,localisation of ThS signal,[3]; [5],intracellular
